Results reported in publication PMC12207370, “Macrocyclic Peptide Probes for Immunomodulatory Protein CD59: Potent Modulators of Bacterial Toxin Activity and Antibody‐Dependent Cytotoxicity” (Angewandte Chemie (International Ed. in English), 2025).
Numbered stars: 1 amine (or outer) side, 2 acyl side, 3 side chain; on linkers, the order of the positions; unused ones are H or OH. Bridge positions count the residues as written; N and C are the ends. Square brackets hold non-standard residues; d marks the D form. Peptide text beside a SMILES is read from it. I, II: the chains in the order shown. CO(CH2CH2O)5CH2CH2CO = O=C(CCOCCOCCOCCOCCOCCC(=O)[*:2])[*:1]

Key:
[1] = Solubility and aggregation behaviour of hit peptides (stated in words); type: physicochemical
CD59 = target: T1, CD59 (Homo sapiens, UniProt P13987); test: SPR (Biacore S200) binding to immobilised biotinylated CD59; settings: SPR, immobilized CD59
T1 construct: Recombinant soluble human CD59 with an additional C-terminal cysteine residue
T1 sequence (P13987 26-102 limits assumed): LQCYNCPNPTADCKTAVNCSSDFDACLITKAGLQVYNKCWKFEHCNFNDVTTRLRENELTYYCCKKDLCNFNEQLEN
Description: To identify which of these peptides bound CD59 most tightly, we used a Biacore S200 surface plasmon resonance (SPR) platform to investigate CD59 affinity (Figure 2b), using a known protein binding partner of CD59 (rILYd4) as a benchmark. Four 13‐mer macrocyclic peptides and one 14‐mer macrocyclic peptide were identified with a dissociation constant (K D) lower than that of rILYd4. Considering their fourfold lower molecular weight, these peptides bind with up to 19‐fold greater efficiency compared to rILYd4 (Figure 2b).
Equipment: SPR analysis was performed on a Cytiva Biacore S200. All buffers were prepared using ultra-pure water from a Millipore Elix Q-Gard purification system. Solutions and buffers were filtered with a 0.22 μm filter and degassed prior to use. The assays were performed on Series S streptavidin (SA) sensor chip (Cytiva). PBS-P+ buffer 10X (0.2 M phosphate buffer with 27 mM KCl, 1.37 M NaCl and 0.5% Surfactant P20 (Tween 20)) was used for the preparation of the assay running buffer (PBS-P+ 1X).
Immobilisation of CD59-biotin: Biotinylated CD59 was immobilised on the surface of a SA chip by non-covalent capture (biotin streptavidin interaction) as per the manufacturer’s instructions. The system was initially primed with running buffer and normalised using BIAnormalizing solution (70% (w/w) glycerol) (Cytiva). Before immobilising the protein, the surface was conditioned with three consecutive one-minute injections of 1 M NaCl in 50 mM NaOH. Biotinylated CD59 (0.5 µg/mL in running buffer) was flowed over the protein (active) channel for different contact times to achieve different immobilisation levels (600–1200 RU). After each protein injection, the needle and injection loop were washed using 50% isopropanol in 1 M NaCl and 50 mM NaOH. A reference channel was prepared by similar treatment; however, running buffer alone rather than CD59-biotin in running buffer was flowed over the chip the same way.
Interaction analysis: Multicycle kinetic and affinity approach was used for the analysis of peptides interactions with CD59. Two-fold serial dilutions of each peptide were prepared in running buffer and were flowed over both the ligand and reference channel using a flow rate (30 μL/min) at 25 °C. A zero concentration was added to each analyte series and three cycles of buffer were run between analytes to restore the baseline. The obtained sensorgrams were analysed using the embedded Biacore S200 Evaluation software. The data were normalised by subtracting RU values of the reference channel and zero concentration of the analyte series. Kinetic rate constants (kon and koff) were determined by fitting the normalised data using the built-in Kinetic analysis model (non-linear regression with a 1:1 Langmuir binding model), KD values were then calculated from the two rate constants ([…]). The KD values were determined again by fitting the normalised data using the built-in Affinity analysis model (1:1 Langmuir binding model).

SK-BR-3 cells = test: ILY lysis assay (Sytox green, IncuCyte) in SK-BR-3 cells; type: cell-based, human
Description: Figure 5 CP‐06 and optimized analogues control CD59 activity in cellular assays. a) ILY lysis assay. SK‐BR‐3 cells were treated with CP‐06 (n = 4) or CP‐06[W3A] (n = 2), then with Sytox green dye and ILY ([…]). The plate was imaged immediately with the IncuCyte S3 Live Cell Analysis System and then every hour up to 14 h. The linear phase of lysis was taken from each well, and linear regression was performed to extract individual slope values, which were then normalized to maximum lysis rate (Sytox and ILY) vs. 0% lysis (Sytox only) within each plate. […] Human erythrocytes were sensitized with 1% w/v anti‐human erythrocyte Ab with 5% v/v human serum in the presence of a serial dilution of CP‐06C18 (black bars) or CP‐06scrmb‐C18 (red bars) Percent lysis enhancement was calculated by normalization to 0% enhancement (buffer well) and plotted as the mean of three biological replicates ± SEM.
Determination of optimal ILY concentration: 20,000 SK-BR-3 cells were seeded in a 96-well plate (Grenier, 655180) 24 h before treatment. […] Any bubbles were removed by a de-bubbler and the plate was immediately transferred to IncuCyte® S3 Live Cell Analysis System where each well was imaged 4 times at 10 × magnification with phase contrast and green fluorescence (λex 440–480 nm, λem = 504–544 nm) every hour for 24 h. […]

SMILES | solubility (in words) [1] | koff (CD59; read-out: Koff (dissociation rate constant)) [s⁻¹] | kon (CD59; read-out: Kon (association rate constant)) [M⁻¹ s⁻¹] | inhibition of ILY lysis (in words) (SK-BR-3 cells)
CC(C)[C@@H]1NC(=O)[C@H](CO)NC(=O)[C@H](CO)NC(=O)[C@H](CCCNC(=N)N)NC(=O)[C@H](CC(N)=O)NC(=O)CNC(=O)[C@H](Cc2c[nH]c3ccccc23)NC(=O)[C@H]([C@@H](C)O)NC(=O)[C@H](Cc2c[nH]c3ccccc23)NC(=O)[C@H](CO)NC(=O)[C@@H](Cc2ccc(O)cc2)NC(=O)CSC[C@@H](C(N)=O)NC(=O)CNC(=O)[C@H](CCCNC(=N)N)NC1=O [CP-06] (HELM PEPTIDE1{[O=C(C[*:3])[*:2]].[dY].S.W.T.W.G.N.R.S.S.V.R.G.C.[am]}$PEPTIDE1,PEPTIDE1,1:R3-15:R3$$$V2.0) | good solubility | 0.0204 | 1.86e+06 | –
CC(C)[C@@H]1NC(=O)[C@H](CO)NC(=O)[C@H](CO)NC(=O)[C@H](CCCNC(=N)N)NC(=O)[C@H](CC(N)=O)NC(=O)CNC(=O)[C@H](Cc2c[nH]c3ccccc23)NC(=O)[C@H]([C@@H](C)O)NC(=O)[C@H](Cc2c[nH]c3ccccc23)NC(=O)[C@H](CO)NC(=O)[C@@H](Cc2ccc(O)cc2)NC(=O)CSC[C@@H](C(=O)NCC(=O)N[C@@H](CCCCNC(=O)CCOCCOCCOCCOCCOCCC(=O)NCCCC[C@H](NC(=O)CNC(=O)[C@@H]2CSCC(=O)N[C@H](Cc3ccc(O)cc3)C(=O)N[C@@H](CO)C(=O)N[C@@H](Cc3c[nH]c4ccccc34)C(=O)N[C@@H]([C@@H](C)O)C(=O)N[C@@H](Cc3c[nH]c4ccccc34)C(=O)NCC(=O)N[C@@H](CC(N)=O)C(=O)N[C@@H](CCCNC(=N)N)C(=O)N[C@@H](CO)C(=O)N[C@@H](CO)C(=O)N[C@@H](C(C)C)C(=O)N[C@@H](CCCNC(=N)N)C(=O)NCC(=O)N2)C(=O)NCC(N)=O)C(=O)NCC(N)=O)NC(=O)CNC(=O)[C@H](CCCNC(=N)N)NC1=O [CP-06dimer] (I: {CH2CO}-[dY]SWTWGNRSSVRGCGKG-NH2 / II: {CH2CO}-[dY]SWTWGNRSSVRGCGKG-NH2; linker I:16-II:16 via CO(CH2CH2O)5CH2CH2CO; thioether I:N-I:14, II:N-II:14) | – | – | – | completely inhibits ILY lysis
